The first test concerns IL-1β. As to the kind of experiment: In-vitro IL-1β inhibition assay in PMA-differentiated, LPS-primed, ATP-stimulated THP1 cells. In kind it is cell-based. As to conditions: Homo sapiens, THP-1; THP1 monocytes differentiated with PMA, primed with 500 ng/mL LPS, compound 30 min, 5 mM ATP 1 hr; IL-1β in supernatant; read-out: IC50 (nM), invitro IL-1β inhibitory activity. As for the experimental part:
THP1 monocytes were differentiated with PMA (100 ng/mL) and incubated at 37 deg C. for 20 hrs in presence of 5% CO2. 2×10^5 differentiated cells were plated per well of 96 well tissue culture plates. The cells were primed using 500 ng/mL Lipopolysaccharide and incubating for 4 h under the same condition. The cells were then treated with various concentrations of the compounds for 30 min followed by treatment with 5 mM ATP for 1 hr. The supernatants were collected and analyzed by IL-1b (Mabtech Cat #3415-1H-20) or TNF-α (Mabtech; Cat #3510-1H-20) detection kit. The data were analyzed using GraphPad Prism V7.0. Dose Response Curve (DRC) was constructed to determine the IC50 value by fitting percentage […] data to the GraphPad Prism using nonlinear regression analysis.
Regarding `CCCN1CCC[C@@H]1/C=C/S(=O)(=O)NC(=O)Nc1c2c(cc3c1CCC3)CCC2` [Example 4, (R,E)-N-((1,2,3,5,6,7-hexahydro-s-indacen-4-yl)carbamoyl)-2-(1-propylpyrrolidin-2-yl)ethene-1-sulfonamide], the IC50 was 7.4 nM.

Another test relates to IL-1β. As to the kind of experiment: In-vivo LPS and ATP induced IL-1β assay. The conditions noted are these: Mus musculus, 2.5 h; Dose 10 mpk, po; female C57 mice; serum IL-1β by ELISA; read-out: % IL-1β inhibition in LPS + ATP challenged C57 mice. Here is the method: All the animal experiments were carried out in female rats and mice, bred in-house. Animals were housed in groups of 6 animals per cage, for a week, in order to habituate them to vivarium conditions (25 f 4° C., 60-65% relative humidity, 12:12 h light:dark cycle, with lights on at 7.30 am). All the animal experiments were carried out according to the internationally valid guidelines following approval by the ‘Zydus Research Center animal ethical committee’.
Female C57 mice (6-8 weeks) received intraperitoneal injection of 50 μg/mouse of lipopolysaccharide (LPS) in PBS. Animals were treated immediately with the test compounds or the vehicle. After 2 h of LPS injection, animals were administered with ATP at 12.5 mg/mouse dissolved in PBS via intraperitoneal route. After 30 minutes of ATP injection, serum was collected for IL-1β estimation by ELISA.
For `CCCN1CCC[C@@H]1/C=C/S(=O)(=O)NC(=O)Nc1c2c(cc3c1CCC3)CCC2` [Example 4, (R,E)-N-((1,2,3,5,6,7-hexahydro-s-indacen-4-yl)carbamoyl)-2-(1-propylpyrrolidin-2-yl)ethene-1-sulfonamide], the inhibition in vivo at 10 mg/kg was found to be 90%.

As to `O=C(Nc1c2c(cc3c1CCC3)CCC2)NS(=O)(=O)/C=C/[C@H]1CCCN1C1CCSCC1` [Example 40, (R,E)-N-((1,2,3,5,6,7-hexahydro-s-indacen-4-yl)carbamoyl)-2-(1-(tetrahydro-2H-thiopyran-4-yl)pyrrolidin-2-yl)ethene-1-sulfonamide], the inhibition in vivo at 10 mg/kg worked out at 86%.

Consider `CC(C)c1cc(F)cc(C(C)C)c1NC(=O)NS(=O)(=O)/C=C/[C@@H]1CCCN1C` [Example 77, (S,E)-N-((4-fluoro-2,6-diisopropylphenyl)carbamoyl)-2-(1-methylpyrrolidin-2-yl)ethene-1-sulfonamide], for which the inhibition in vivo at 10 mg/kg stood at 47%.

Turning to `C[C@]1(/C=C/S(=O)(=O)NC(=O)Nc2c3c(cc4c2CCC4)CCC3)CCCN1S(C)(=O)=O` [Example 55, (R,E)-N-((1,2,3,5,6,7-hexahydro-s-indacen-4-yl)carbamoyl)-2-(2-methyl-1-(methylsulfonyl)-pyrrolidin-2-yl)ethene-1-sulfonamide], the inhibition in vivo at 10 mg/kg came to 82.5%.

`CN1CCCCC1/C=C/S(=O)(=O)NC(=O)Nc1c2c(cc3c1CCC3)CCC2` (centres unmarked) [Example 101, (E)-N-((1,2,3,5,6,7-hexahydro-s-indacen-4-yl)carbamoyl)-2-(1-methylpiperidin-2-yl)ethene-1-sulfonamide]: the inhibition in vivo at 10 mg/kg was determined as 82%.

As for `CC(=O)N1CCC[C@H]1/C=C/S(=O)(=O)NC(=O)Nc1c2c(cc3c1CCC3)CCC2` [Example 69, (S,E)-2-(1-acetylpyrrolidin-2-yl)-N-((1,2,3,5,6,7-hexahydro-s-indacen-4-yl)carbamoyl)-ethenesulfonamide], the inhibition in vivo at 10 mg/kg was 84%.

For `O=C(Nc1c2c(cc3c1CCC3)CCC2)NS(=O)(=O)/C=C/C1CCCO1` (centres unmarked) [Example 73, (E)-N-((1,2,3,5,6,7-hexahydro-s-indacen-4-yl)carbamoyl)-2-(tetrahydrofuran-2-yl)ethene-1-sulfonamide], the inhibition in vivo at 10 mg/kg came out at 80%.

The term IC50 denotes the point on the concentration scale where inhibition reaches its midpoint.

(Values after patent publication US12084416B2, “Substituted sulfonylurea derivatives” (Zydus Lifesciences Limited, priority 2019, dated 2024).)
